Measured values taken from PMC9841523 (Journal of Medicinal Chemistry, 2022).
“And” between values parts separate entries of the source, which are not always exact repeats. Equal values may be shown once. Read-outs that look alike come from different tables or passages of the source.

How the values were obtained:
[1] = test system: MARK3, MARK4; assay: KiNativ kinase panel; type: cell-based, human; conditions: 1 μM; MCF-7 Cells; Lys1; EVAIKIIDK
[2] = biological target: T1, CK1g3 (Homo sapiens, UniProt Q9Y6M4); assay: KiNativ kinase panel; type: cell-based; conditions: 1 μM, MCF-7 Cells, Lys2
T1 construct: MCF7 cells were exposed to; endogenous in cells; host or cells: MCF7

[3] = biological target: T2, MLK3 (Homo sapiens, UniProt Q16584); assay: KiNativ kinase panel; type: cell-based; conditions: 1 μM; MCF-7 Cells; Lys2; DLKSNNILLLQPIESDDMEHK
T2 construct: purchased ActivX Biosciences (KiNativ)

[4] = test system: NDR1, NDR2; assay: KiNativ kinase panel; type: cell-based, human; conditions: 1 μM; MCF-7 Cells; Activation Loop; LSDFGLCTGLKK
[5] = biological target: T3, DLK (Homo sapiens, UniProt Q12852); assay: KiNativ kinase panel; type: cell-based; conditions: 1 μM; MCF-7 Cells; Lys2; DLKSPNMLITYDDVVK
T3 construct: endogenous in cells; host or cells: MCF7
T3 sequence (Q12852 whole entry): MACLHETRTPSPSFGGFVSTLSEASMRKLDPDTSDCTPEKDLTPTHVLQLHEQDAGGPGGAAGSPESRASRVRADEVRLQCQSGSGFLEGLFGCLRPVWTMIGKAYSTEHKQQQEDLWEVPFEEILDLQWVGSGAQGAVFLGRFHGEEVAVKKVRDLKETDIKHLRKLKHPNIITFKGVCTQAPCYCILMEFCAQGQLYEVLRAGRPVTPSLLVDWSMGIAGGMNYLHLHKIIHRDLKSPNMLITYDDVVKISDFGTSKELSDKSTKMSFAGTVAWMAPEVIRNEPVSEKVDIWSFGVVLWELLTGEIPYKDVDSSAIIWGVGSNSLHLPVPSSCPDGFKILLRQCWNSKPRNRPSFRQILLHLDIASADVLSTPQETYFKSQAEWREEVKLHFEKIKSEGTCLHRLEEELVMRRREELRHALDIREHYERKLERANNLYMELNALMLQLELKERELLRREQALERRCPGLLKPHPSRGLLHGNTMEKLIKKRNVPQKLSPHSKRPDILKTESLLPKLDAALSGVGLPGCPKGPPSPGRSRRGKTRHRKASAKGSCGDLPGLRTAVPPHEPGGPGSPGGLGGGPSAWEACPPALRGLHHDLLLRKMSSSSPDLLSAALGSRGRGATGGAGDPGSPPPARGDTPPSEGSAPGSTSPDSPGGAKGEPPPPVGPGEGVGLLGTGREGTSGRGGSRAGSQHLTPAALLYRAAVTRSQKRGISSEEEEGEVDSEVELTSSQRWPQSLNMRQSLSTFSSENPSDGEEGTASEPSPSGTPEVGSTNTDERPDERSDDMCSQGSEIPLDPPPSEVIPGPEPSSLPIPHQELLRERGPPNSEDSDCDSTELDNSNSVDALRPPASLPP

[6] = biological target: T4, PI3K-GAMMA (Homo sapiens, UniProt P48736); assay: Nanosyn Lipid Kinase screen; type: biochemical
T4 construct: purchased Thermo Fisher lot#1716438D
T4 sequence (P48736 whole entry, species assumed): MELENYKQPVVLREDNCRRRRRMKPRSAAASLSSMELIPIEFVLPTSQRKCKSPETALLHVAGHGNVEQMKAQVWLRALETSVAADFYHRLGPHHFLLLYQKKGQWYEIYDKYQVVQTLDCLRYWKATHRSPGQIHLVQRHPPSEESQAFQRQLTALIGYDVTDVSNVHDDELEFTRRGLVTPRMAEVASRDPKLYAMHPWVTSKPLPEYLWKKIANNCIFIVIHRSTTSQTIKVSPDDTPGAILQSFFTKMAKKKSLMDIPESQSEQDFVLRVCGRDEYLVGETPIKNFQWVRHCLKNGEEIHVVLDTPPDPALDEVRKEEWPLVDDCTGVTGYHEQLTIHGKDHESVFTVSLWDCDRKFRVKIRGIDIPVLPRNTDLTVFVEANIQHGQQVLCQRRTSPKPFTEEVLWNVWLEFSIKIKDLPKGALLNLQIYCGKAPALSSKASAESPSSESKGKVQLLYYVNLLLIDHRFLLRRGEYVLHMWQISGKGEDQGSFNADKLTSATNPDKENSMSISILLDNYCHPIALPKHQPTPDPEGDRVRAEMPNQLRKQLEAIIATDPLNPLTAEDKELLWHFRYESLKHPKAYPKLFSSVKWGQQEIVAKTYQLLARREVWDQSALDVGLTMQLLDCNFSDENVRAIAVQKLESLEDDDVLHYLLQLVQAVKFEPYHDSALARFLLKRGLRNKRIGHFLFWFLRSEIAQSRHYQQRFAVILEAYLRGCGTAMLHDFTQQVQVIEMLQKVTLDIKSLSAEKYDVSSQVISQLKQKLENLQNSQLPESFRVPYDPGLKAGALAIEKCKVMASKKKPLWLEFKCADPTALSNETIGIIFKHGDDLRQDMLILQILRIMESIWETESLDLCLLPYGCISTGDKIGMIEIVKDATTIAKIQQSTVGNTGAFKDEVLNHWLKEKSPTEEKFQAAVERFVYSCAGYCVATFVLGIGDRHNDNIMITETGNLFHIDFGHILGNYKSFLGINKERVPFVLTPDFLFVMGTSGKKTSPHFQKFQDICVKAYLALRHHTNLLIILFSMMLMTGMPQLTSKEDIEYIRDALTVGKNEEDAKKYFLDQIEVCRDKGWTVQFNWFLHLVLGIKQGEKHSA
T4 sequence (P62942 whole entry partner, species assumed): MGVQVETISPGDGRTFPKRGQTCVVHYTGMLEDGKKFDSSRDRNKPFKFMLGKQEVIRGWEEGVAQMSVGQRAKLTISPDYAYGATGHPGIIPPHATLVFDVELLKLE
Method: (§1) complex formation) controls.
(§2) Nanosyn Lipid Kinase screen. Biochemical inhibition of lipid and related protein kinases was determined by Nanosyn (Santa Clara, CA). […]
(§3) was determined by detection of fluorescent substrates using a microfluidic electrophoresis mobility shift assay with a LabChip3000 instrument (Caliper/PerkinElmer). Bodipy labeled phosphatidylinositol 4,5 phosphate (FL-PIP2) (Echelon Biosciences, Salt Lake City, Utah) with 1,2-dioctanoyl-sn-glycero-3-phospho-L-serine (PS) (Avanti Polar Lipids (Alabaster, AL) was […]
(§4) of DNA-PK (Promega, Cat#V4106) on a peptide/dsDNA complex was assayed by detection of ADP formation using ADP-Glo (Promega). Kinase reactions were assembled in 384 well plates in a total volume of 20 µL as follows. For PI3K isoforms, the kinase protein was pre-diluted to 2x concentration in the assay buffer (50 mM HEPES, pH 7.5, 1 mM DTT, 5 mM MgCl 2, 0.01% […]
(§5) well plate (10 µL per well). Compounds were serially pre-diluted in DMSO and added to the protein samples by acoustic dispensing (200 nL, Labcyte Echo). Concentration of DMSO was equalized to 1% in all samples. All test compounds were tested at 12 concentrations, 3x dilution intervals. The control samples (0%-inhibition in the absence of inhibitor, DMSO only) and 100%-inhibition (in the absence of enzyme) were assembled in replicates of four and were used to calculate %-inhibition in the presence of compounds. After 30 min of pre-incubation with compounds, the reactions were initiated by addition of 10 µL of FL-PIP2/PS substrate (10 µM […]
(§6) (PI3Kα,β), 0.5 nM (PI3Kδ) and 10 nM (PI3Kγ). Final concentration of ATP was 100 µM.
(§7) Following incubation, the reactions were quenched by addition of 50 µL of termination buffer (100 mM HEPES, pH 7.5,

[7] = biological target: T5, PI3K-BETA (Homo sapiens, UniProt P42338); assay: Nanosyn Lipid Kinase screen; type: biochemical
T5 construct: purchased Carna lot # 12CBS-0359H
Method: as §1, §2, §3, §4, §5, §6, §7

[8] = biological target: T6, PI3K-ALPHA (Homo sapiens, UniProt P42336); assay: Nanosyn Lipid Kinase screen; type: biochemical
T6 construct: purchased BPS lot #110809
Method: as §1, §2, §3, §4, §5, §6, §7

[9] = biological target: T7, PI3K-DELTA (Homo sapiens, UniProt O00329); assay: Nanosyn Lipid Kinase screen; type: biochemical
T7 construct: purchased Carna lot#09CBS-1198D
T7 sequence (O00329 whole entry, species assumed): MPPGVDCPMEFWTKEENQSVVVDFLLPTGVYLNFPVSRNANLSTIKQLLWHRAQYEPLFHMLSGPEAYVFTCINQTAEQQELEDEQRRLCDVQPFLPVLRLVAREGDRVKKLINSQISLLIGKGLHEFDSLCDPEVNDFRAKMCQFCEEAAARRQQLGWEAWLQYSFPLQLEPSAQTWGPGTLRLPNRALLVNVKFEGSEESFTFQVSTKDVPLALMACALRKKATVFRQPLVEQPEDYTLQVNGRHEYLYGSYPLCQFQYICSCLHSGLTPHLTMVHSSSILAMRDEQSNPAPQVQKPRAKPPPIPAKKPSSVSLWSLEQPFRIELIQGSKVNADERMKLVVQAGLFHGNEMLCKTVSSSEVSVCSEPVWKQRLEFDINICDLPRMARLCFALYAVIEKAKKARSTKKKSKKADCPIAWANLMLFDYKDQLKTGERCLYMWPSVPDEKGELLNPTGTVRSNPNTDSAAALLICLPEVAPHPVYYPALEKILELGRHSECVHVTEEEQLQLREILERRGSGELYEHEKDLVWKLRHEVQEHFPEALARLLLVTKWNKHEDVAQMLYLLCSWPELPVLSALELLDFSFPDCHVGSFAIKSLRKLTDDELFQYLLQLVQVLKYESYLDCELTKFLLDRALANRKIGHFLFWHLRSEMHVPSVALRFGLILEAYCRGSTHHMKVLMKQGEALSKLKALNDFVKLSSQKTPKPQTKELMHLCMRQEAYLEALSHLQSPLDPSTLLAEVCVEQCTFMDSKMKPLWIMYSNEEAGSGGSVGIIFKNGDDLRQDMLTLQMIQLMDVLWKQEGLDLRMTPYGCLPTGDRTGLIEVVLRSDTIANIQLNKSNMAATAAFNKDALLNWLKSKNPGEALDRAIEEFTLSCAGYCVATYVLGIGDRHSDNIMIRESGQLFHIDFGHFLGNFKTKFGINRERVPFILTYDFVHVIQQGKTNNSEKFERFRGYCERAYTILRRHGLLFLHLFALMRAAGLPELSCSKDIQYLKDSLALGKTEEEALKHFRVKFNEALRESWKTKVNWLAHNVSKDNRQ
T7 sequence (P27986 whole entry partner, species assumed): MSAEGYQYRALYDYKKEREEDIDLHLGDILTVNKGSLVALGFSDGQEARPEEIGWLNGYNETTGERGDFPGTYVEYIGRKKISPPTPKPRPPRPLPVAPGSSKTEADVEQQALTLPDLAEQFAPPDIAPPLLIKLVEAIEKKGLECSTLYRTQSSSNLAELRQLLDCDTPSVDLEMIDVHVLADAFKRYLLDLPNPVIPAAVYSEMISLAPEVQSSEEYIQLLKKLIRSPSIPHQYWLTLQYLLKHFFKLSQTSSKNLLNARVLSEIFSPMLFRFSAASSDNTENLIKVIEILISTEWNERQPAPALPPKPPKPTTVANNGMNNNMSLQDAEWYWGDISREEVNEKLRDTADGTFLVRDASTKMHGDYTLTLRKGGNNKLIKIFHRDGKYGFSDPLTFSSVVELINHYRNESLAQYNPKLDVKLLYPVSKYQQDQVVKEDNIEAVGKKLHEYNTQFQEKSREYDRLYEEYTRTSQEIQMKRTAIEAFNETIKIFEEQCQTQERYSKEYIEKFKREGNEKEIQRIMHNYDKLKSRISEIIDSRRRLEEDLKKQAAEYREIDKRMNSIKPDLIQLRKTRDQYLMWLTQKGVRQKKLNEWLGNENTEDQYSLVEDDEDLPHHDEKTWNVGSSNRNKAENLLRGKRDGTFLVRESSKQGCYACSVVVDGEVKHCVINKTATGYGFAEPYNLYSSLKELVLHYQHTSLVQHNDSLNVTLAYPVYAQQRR
T7 sequence (P62942 whole entry partner, species assumed): as the sequence (P62942 whole entry partner, species assumed) above
Method: as §1, §2, §3, §4, §5, §6, §7

[10] = biological target: T8, mTORC1 (Homo sapiens, UniProt P42345+P62942); assay: Nanosyn Lipid Kinase screen; type: biochemical
T8 construct: purchased BPS lot # 150818-A
Method: as §1, §2, §3, §4, §5, §6, §7

[11] = test system: PCTAIRE1, PCTAIRE3; assay: KiNativ kinase panel; type: cell-based, human; conditions: 1 μM, MCF-7 Cells, Lys2
[12] = test system: p70S6K, p70S6Kb; assay: KiNativ kinase panel; type: cell-based, human; conditions: 1 μM, MCF-7 Cells, ATP Loop
[13] = test system: p38d, p38g; assay: KiNativ kinase panel; type: cell-based, human; conditions: 1 μM, MCF-7 Cells, Lys2
[14] = Mouse pharmacokinetics, IP administration; type: in vivo; conditions: male Balb/c mice, 1 mg/kg IP, mean ± SD, n = 3
Method: Mouse Pharmacokinetic Studies. Male Balb/C mice were non-fasted on the day of dosing. PK […]
plasma were conducted using an AB Sciex Triple Quad 6500+ mass spectrometer coupled with a Waters UPLC system. Supernatants were collected by centrifugation after protein precipitation using MeCN containing internal standard (IS, D4-AEA). Supernatant was injected for LC- […]
μm) column. The LC mobile phase (A: 5 mM NH 4OAc in H 2O; B: MeCN/MeOH 50/50)

[15] = test system: MST3, MST4, YSK1; assay: KiNativ kinase panel; type: cell-based, human; conditions: 1 μM, MCF-7 Cells, Activation Loop
[16] = biological target: T9, p38a (Homo sapiens, UniProt Q16539); assay: KiNativ kinase panel; type: cell-based; conditions: 1 μM, MCF-7 Cells
T9 construct: purchased ActivX Biosciences (KiNativ)
T9 sequence (Q16539 whole entry): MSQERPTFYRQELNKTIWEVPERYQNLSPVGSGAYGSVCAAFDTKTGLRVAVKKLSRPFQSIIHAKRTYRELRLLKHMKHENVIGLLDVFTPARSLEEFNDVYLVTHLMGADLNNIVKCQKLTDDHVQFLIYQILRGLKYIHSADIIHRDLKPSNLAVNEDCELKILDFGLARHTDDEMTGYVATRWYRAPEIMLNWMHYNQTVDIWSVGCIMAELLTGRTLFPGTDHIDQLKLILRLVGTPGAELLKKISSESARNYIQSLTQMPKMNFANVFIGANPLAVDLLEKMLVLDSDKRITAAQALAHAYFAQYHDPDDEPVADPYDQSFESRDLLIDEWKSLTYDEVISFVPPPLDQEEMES

[17] = biological target: T10, CSK (Homo sapiens, UniProt P41240); assay: KiNativ kinase panel; type: cell-based; conditions: 1 μM, MCF-7 Cells
T10 construct: MCF7 cells were exposed to; endogenous in cells; host or cells: MCF7
T10 sequence (P41240 whole entry): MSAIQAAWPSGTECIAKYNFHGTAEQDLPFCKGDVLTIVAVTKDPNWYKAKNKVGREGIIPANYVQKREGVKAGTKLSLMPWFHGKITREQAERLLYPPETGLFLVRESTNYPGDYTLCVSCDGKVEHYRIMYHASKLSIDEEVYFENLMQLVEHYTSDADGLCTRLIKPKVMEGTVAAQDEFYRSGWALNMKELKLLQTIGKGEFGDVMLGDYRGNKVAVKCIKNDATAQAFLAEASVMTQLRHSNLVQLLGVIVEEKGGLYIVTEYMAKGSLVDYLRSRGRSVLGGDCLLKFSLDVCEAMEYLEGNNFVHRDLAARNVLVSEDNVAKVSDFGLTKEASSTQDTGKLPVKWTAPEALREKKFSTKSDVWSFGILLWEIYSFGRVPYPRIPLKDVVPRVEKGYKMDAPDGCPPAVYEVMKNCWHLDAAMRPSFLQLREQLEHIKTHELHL

[18] = biological target: T11, EphB2 (Homo sapiens, UniProt P29323); assay: KiNativ kinase panel; type: cell-based; conditions: 1 μM; MCF-7 Cells; Activation Loop; FLEDDTSDPTYTSALGGKIPIR
T11 construct: MCF7 cells were exposed to; endogenous in cells; host or cells: MCF7

[19] = Activation Loop, VSDFGLTKEASSTQDTGKLPVK

## CO[C@H]1C[C@@H]2CC[C@@H](C)[C@@](O)(O2)C(=O)C(=O)N2CCCC[C@H]2C(=O)O[C@H]([C@H](C)C[C@@H]2CC[C@@H](OC(=O)NCCOCCOCCOCCOCCOCCOCCOCCOCCC(=O)N3CCc4cc(Cn5nc(-c6ccc7oc(N)nc7c6)c6c(N)ncnc65)ccc4C3)[C@H](OC)C2)C[C@@H](O)[C@H](C)/C=C(\C)[C@@H](O)[C@@H](OC)C(=O)[C@H](C)C[C@H](C)/C=C/C=C/C=C/1C [compound 38]
[1]
  KiNativ Kinase Panel Data: 7.2
[2]; […]
  KiNativ Kinase Panel Data: 13.2
[3]
  KiNativ Kinase Panel Data: 2.0
[4]
  KiNativ Kinase Panel Data: 25.0
[5]
  KiNativ Kinase Panel Data: -43.9
[6]
  IC50: > 1000 nM
[7]
  IC50: > 1000 nM
[8]
  IC50: 41.2 nM
[9]
  IC50: 95 nM
[10]
  IC50: 0.774 nM
[11]; […]
  KiNativ Kinase Panel Data: 13.9
[12]; […]
  KiNativ Kinase Panel Data: 20.1
[13]; […]
  KiNativ Kinase Panel Data: -3.7
[14]; mouse, in vivo
  AUC(0-t): 25.9 ± 3 µM·h
  Cmax: 5670 ng/mL and 3.19 µM
  half-life: 4.8 ± 0.4 h
[14]; mouse, in vivo, read-out: Tmax
  Tmax: 2 h
[15]; […]
  KiNativ Kinase Panel Data: 12.4
[16]; Lys2, DLKPSNLAVNEDCELK
  KiNativ Kinase Panel Data: -4.3
[16]; Other, QELNKTIWEVPER
  KiNativ Kinase Panel Data: -5.2
[17]; [19]
  KiNativ Kinase Panel Data: 1.9
[17]; Lys1, VAVKCIK
  KiNativ Kinase Panel Data: 13.6
[18]
  KiNativ Kinase Panel Data: 26.5

## CO[C@H]1C[C@@H]2CC[C@@H](C)[C@@](O)(O2)C(=O)C(=O)N2CCCC[C@H]2C(=O)O[C@H]([C@H](C)C[C@@H]2CC[C@@H](OC(=O)NCCOCCOCCOCCOCCOCCOCCOCCOCCC(=O)NCCS(=O)(=O)c3ccc(C(=O)N4CCOc5ccc(-c6ccc(N)nc6)cc5C4)c(C)c3F)[C@H](OC)C2)C[C@@H](O)[C@H](C)/C=C(\C)[C@@H](O)[C@@H](OC)C(=O)[C@H](C)C[C@H](C)/C=C/C=C/C=C/1C [compound 40]
[1]
  KiNativ Kinase Panel Data: 13.2
[2]; DVKPENFLIGRPGNK
  KiNativ Kinase Panel Data: -6.6
[3]
  KiNativ Kinase Panel Data: -12.3
[4]
  KiNativ Kinase Panel Data: -18.5
[5]
  KiNativ Kinase Panel Data: -20.3
[6]; Nanosyn, with FKBP12, read-out: PI3K-GAMMA IC50
  IC50: > 1000 nM
[7]; Nanosyn, with FKBP12
  IC50: > 1000 nM
[8]; Nanosyn, with FKBP12, read-out: PI3K-ALPHA IC50
  IC50: > 1000 nM
[9]; Nanosyn, with FKBP12, read-out: PI3K-DELTA IC50
  IC50: > 1000 nM
[10]; read-out: mTORC1 IC50, Nanosyn, with FKBP12
  IC50: 0.473 nM
[11]; DLKPQNLLINER
  KiNativ Kinase Panel Data: -31.2
[12]; GGYGKVFQVR
  KiNativ Kinase Panel Data: -4.7
[13]; DLKPGNLAVNEDCELK
  KiNativ Kinase Panel Data: -28.8
[14]
  Tmax: 2.3 ± 1.5 h
  t1/2: 3.8 ± 0.6 h
[14]; 1 mg/kg
  AUClast: 8.7 ± 1.2 µM·h
[15]; LADFGVAGQLTDTQIKR
  KiNativ Kinase Panel Data: 20.4
[16]; Lys2, DLKPSNLAVNEDCELK
  KiNativ Kinase Panel Data: -6.8
[16]; Other, QELNKTIWEVPER
  KiNativ Kinase Panel Data: -1.6
[17]; [19]
  KiNativ Kinase Panel Data: 5.5
[17]; Lys1, VAVKCIK
  KiNativ Kinase Panel Data: 17.7
[18]
  KiNativ Kinase Panel Data: 1.3
